Test results reported in US6455041B1, “Immunogenic epitopes of the human zona pellucida protein (ZP1)” (priority 1998, dated 2002).

What was measured:
[1] = test system: antibodies from rabbits immunized with heat solubilized, native porcine ZP proteins (HSZP); assay: Biotinylated peptide assay, pooled antisera from rabbits immunized with porcine ZP (HSPZ); assay type: binding, rabbit; details: Complete Freund's Adjuvant, FIG. 1B
Protocol: (§1) Peptides containing 15 amino acid residues, which overlapped by 9 amino acids, were designed to ensure that all potential epitopes would be identified. Biotinylated peptides (BP) containing 15-mers with a 9-amino acid overlap were synthesized by Chiron Mimotopes Pty. Ltd. (Victoria, Australia).
(§2) For the assay, streptavidin (Sigma Chemicals, S-4762) was diluted to 5 μg/ml in deionized water and dispensed at 100 μl well into 96-well microtiter plates (Immulon 2, Dynatech Labs) and plates are incubated overnight at 32° C. to evaporate to complete dryness. Plates were then rinsed four times in wash buffer of pH 7.3, consisting of 0.02M sodium phosphate containing 0.15M NaCl and 0.05% Tween 20. The plates were blocked using 200 μl 0.02M sodium phosphate buffered saline (PBS) containing 2% nonfat dried milk (pH 8.8) for 2 hours at room temperature and the rinse was repeated. Blocking and all incubations were carried out using a Minimix shaker (Fisher). Biotinylated peptides were then dispensed such that the final: dilution of each was 1:10,000 and was made in wash buffer containing 2% nonfat dried milk. […]
(§3) After rinsing with blocking solution, 100 μl/well of antibody solution was added and plates incubated at RT for 2 hours with shaking. […] The plates were incubated at RT with shaking for 45 minutes and read in a Titertek Multiskan reader at 405 nm. […]

[2] = test system: antibodies in sera of baboons administered electrophoretically purified, denatured porcine ZP proteins; assay: Biotinylated peptide assay, sera from baboons immunized with chemically deglycosylated, electrophoretically purified porcine ZP proteins; assay type: binding, baboon; details: two baboons immunized with deglycosylated, FIGS. 3A-3B
Protocol: as §1
as §2, with “(Fisher).” for “(Fisher). Biotinylated peptides were then dispensed such that the final: dilution of each was 1:10,000 and was made in wash buffer containing 2% nonfat dried milk.”
as §3
Additional sera from baboons administered electrophoretically purified, denatured porcine ZP proteins as the immunogen (35), were evaluated. […]

[3] = test system: antibodies from baboons immunized with HSZP; assay: Biotinylated peptide assay, antisera from baboons immunized with porcine ZP (HSPZ); assay type: binding, baboon; details: for peptide recognition by sera of individual baboons: four baboons (#1994, #2020, #2044, #2032) immunized with HSZP, sera 3 weeks after second booster, dilution 1/1000, FIGS. 2A-2D; for peptide recognition by baboon serum pool: pooled antisera from baboons immunized with HSZP, TiterMax adjuvant, FIG. 1C
Protocol: Lyophilized porcine ZP immogen was prepared and solubilized in 0.1 M sodium carbonate, pH 9.6 and heated at 60° C. for ten minutes as previously described (42, 45). Immunogen was emulsified in Titer Max adjuvant (50%) by passage through syringes with 19 gauge needles connected by tygon tubing. Animals were sedated with Ketarmine (10 mg/kg) prior to injection with 200 μl containing ^150 μg ZP immunogen (primary and boosts). Animals were immunized and boosted at 3 week and 6 week intervals.
Blood samples were collected at approximately 3 week intervals following the booster injections, and were obtained from femoral veins under Ketamine sedation. Serum was isolated by conventional methods an conveyed frozen to the U.S.A. laboratory facility for analysis. For the present studies, serum samples taken at three weeks following the second booster injection were used. The ELISA assay previously described by Drell and Dunbar, 1984 (46) was used to determine the levels of antibody against immobilized HSPZ. Antisera previously obtained from baboons immunized against electrophoretically purified porcine ZP1 (35) were used as a positive control for these assays. Nonimmune sera from animals immunized with adjuvant alone were used as a negative control.
as §1
For the assay, streptavidin (Sigma Chemicals, S-4762) was diluted to 5 μg/ml in deionized water and dispensed at 100 μl well into 96-well microtiter plates (Immulon 2, Dynatech Labs) and plates are incubated overnight at 32° C. to evaporate to complete dryness. Plates were then rinsed four times in wash buffer of pH 7.3, consisting of 0.02M sodium phosphate containing 0.15M NaCl and 0.05% Tween 20. The plates were blocked using 200 μl 0.02M sodium phosphate buffered saline (PBS) containing 2% nonfat dried milk (pH 8.8) for 2 hours at room temperature and the rinse was repeated. Blocking and all incubations were carried out using a Minimix shaker (Fisher). Biotinylated peptides were then dispensed such that the final: dilution of each was 1:10,000 and was made in wash buffer containing 2% nonfat dried milk. Peptides (100 μl per well) were incubated overnight at 4° C. on the shaker.
Initially, each peptide was solubilized in 200 μl of DMSO per manufacturers' instructions and stored this long term at −80° C. Approximately 2 μl was used to make a 1:5,000 stock solution diluted in PBs containing 0.1% BSA and 0.1% sodium aside. These stocks were then stored at −20° C. and are diluted 1:10,000 for assays. […]

Row | Substance | peptide recognition by rabbit serum pool [1] | peptide recognition by baboon sera [2] | peptide recognition by sera of individual baboons [3] | peptide recognition by baboon serum pool [3]
1 | 55 (SGSGGPLTLELQIAKDKNY; listed as Homo sapiens) [compound 55] | recognized by both serum pools | again recognized by the baboon sera | all four of the animals recognized | recognized by both serum pools
2 | 54 (SGSGFPETQPGPLTLELQI; listed as Homo sapiens) [compound 54] | recognized by both serum pools | again recognized by the baboon sera | all four of the animals recognized | recognized by both serum pools
